pIC50: −log10 of the molar value. Where two headings read alike, the source gives them in different places.
How the values were obtained:
[1] = molecular target: T1, full length human IRAK4 protein (Homo sapiens, UniProt Q9NWZ3); test: IRAK4 Biochemical Assay (Promega ADP-Glo IRAK4 Kinase Enzyme System); conditions: 3 nM enzyme, 250 μM ATP; for pIC50: 2 μM MBP, 60 min at room temperature; for IRAK4 Biochemical Assay Max Inhibition (%): maximum inhibition
T1 construct: Purified full length human IRAK4 protein; purchased Signal Chem I12-10G-125
T1 sequence (Q9NWZ3 1-460): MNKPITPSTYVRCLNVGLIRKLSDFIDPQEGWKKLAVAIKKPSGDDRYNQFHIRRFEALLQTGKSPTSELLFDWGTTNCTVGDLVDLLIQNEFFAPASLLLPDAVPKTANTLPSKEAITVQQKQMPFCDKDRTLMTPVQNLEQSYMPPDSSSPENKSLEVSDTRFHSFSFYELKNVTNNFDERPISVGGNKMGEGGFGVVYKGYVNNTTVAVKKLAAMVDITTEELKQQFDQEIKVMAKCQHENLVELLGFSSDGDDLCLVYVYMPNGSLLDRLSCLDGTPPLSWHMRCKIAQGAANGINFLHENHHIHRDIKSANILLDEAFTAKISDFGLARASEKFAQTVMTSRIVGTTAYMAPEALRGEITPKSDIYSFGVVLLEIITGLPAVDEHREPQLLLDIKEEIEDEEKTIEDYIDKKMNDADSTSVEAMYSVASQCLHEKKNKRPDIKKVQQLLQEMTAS
Protocol: For the routine compound screening, an IRAK4 kinase assay was performed as follows using Promega ADP-Glo IRAK4 Kinase Enzyme System (Promega, Cat #2198-AD). Purified full length human IRAK4 protein (Signal Chem; Cat #I12-10G-125) was diluted to a concentration 6 nM in assay buffer (25 mM MOPS, pH 7.2, 12.5 mM β-glycerol-phosphate, 25 mM MgCl2, 5 mM EGTA, 2 mM EDTA, 0.0025% Brij-35, add 0.25 mM DTT to Kinase Assay Buffer prior to use) containing IRAK4 inhibitor at 2× the final concentration in 0.4% DMSO. The reaction was performed in PerkinElmer Proxiplate-384 plus white plate (Fisher Scientific, Cat #50-905-2761) and started by the addition of an equal volume of the assay buffer containing 4 μM native swine myelin basic protein (MBP) and 500 μM ATP to achieve a final concentration of 3 nM enzyme, 2 μM MBP, 250 μM ATP, 1× compound, and 0.2% DMSO. The kinase reaction was allowed to run for 60 min at room temperature (25-27° C.), then 5 μL of ADP-Glo was added to the reaction in each well followed by 40 minutes-incubation at RT. To detect converted […], 10 μL Detection Buffer was added into each well and Incubate at RT in dark for 30 minutes. Finally, luminescence was read using Tecan with 1000 ms of integration time. The luminescent signal positively correlates with ADP amount and kinase activity. Data was analyzed by GraphPad Prism and IC50 was calculated using function log(inhibitor) vs. response—Variable slope (four parameters). Percentage of inhibition was calculated as below:
(§1) % inhibition=(1−(Reading(Sample)−Reading(Negative Control))/(Reading(Positive Control)−Reading(Negative Control)))×100%
The 0% inhibition value comes from the Reading of Positive Control wells having 0 nM compound. The 100% inhibition value comes from the Reading of Negative Control wells having no IRAK4 kinase.

[2] = molecular target: T2, IRAK4 (Homo sapiens, UniProt Q9NWZ3); test: IRAK4 Human PBMC TNFα Cell Based Assay (AlphaLISA); conditions: TNFα measured
T2 construct: host or cells: human peripheral blood mononuclear cells (PBMCs)
T2 sequence (Q9NWZ3 1-460): T1 sequence (Q9NWZ3 1-460)
Protocol: In this assay, serially diluted compounds were incubated with 1×10^4 human peripheral blood mononuclear cells (PBMCs) from STEMCELL (Cat #70025.1) per well of 384-well plate (Fisher Scientific; 50-905-2761) and cultured with TexMACS medium (Miltenyi, Cat #130-097-196), stimulated by R848 (0.5 μM) or IL-1β (10 ng/ml). Plates were covered with lids and incubated for 4 h (R848, Fisher Scientific, Cat #NC9801605) or 24 h (IL-1β, Fisher Scientific, Cat #ENRIL1BI) at 37° C. in a humidified tissue-culture incubator. After a brief centrifugation at 1000 rpm for 5 minutes, 5 μl of culture medium was used for the measurement of the TNFα amount using TNFα (human) AlphaLISA Detection Kit (PerkinElmer, Cat #AL208C) according to manufacturer's protocol. A biotinylated anti-TNFα antibody binds to the Streptavidin-coated Donor beads while another anti-TNFα antibody is conjugated to AlphaLISA Acceptor beads. In the presence of the TNFα, the beads come into close proximity. The excitation of the Donor beads causes the release of singlet oxygen molecules that triggers a cascade of energy transfer in the Acceptor beads, resulting in a sharp peak of light emission at 615 nm. AlphaLISA assay plates were read using PHERAstar. Percentage of inhibition was calculated as below:
as §1
The 0% inhibition value comes from the Reading of Positive Control wells having 0 nM compound. The 100% inhibition value comes from the Reading of Negative Control wells having no R848 or IL-1β.

[3] = molecular target: T3, CYP2D6 (Homo sapiens, UniProt P10635); test: In vitro study for inhibiting cytochrome P450 (CYP) 2D6 using human liver microsomes; format: in vitro ADME; conditions: human liver microsomes 0.1 mg/ml, probe substrate dextromethorphan 4 μM, 30 min at 37° C.; read-out: IC50 of inhibition on CYP2D6
T3 construct: tissue Corning Co, LTD; host or cells: human liver microsomes
T3 sequence (P10635 whole entry): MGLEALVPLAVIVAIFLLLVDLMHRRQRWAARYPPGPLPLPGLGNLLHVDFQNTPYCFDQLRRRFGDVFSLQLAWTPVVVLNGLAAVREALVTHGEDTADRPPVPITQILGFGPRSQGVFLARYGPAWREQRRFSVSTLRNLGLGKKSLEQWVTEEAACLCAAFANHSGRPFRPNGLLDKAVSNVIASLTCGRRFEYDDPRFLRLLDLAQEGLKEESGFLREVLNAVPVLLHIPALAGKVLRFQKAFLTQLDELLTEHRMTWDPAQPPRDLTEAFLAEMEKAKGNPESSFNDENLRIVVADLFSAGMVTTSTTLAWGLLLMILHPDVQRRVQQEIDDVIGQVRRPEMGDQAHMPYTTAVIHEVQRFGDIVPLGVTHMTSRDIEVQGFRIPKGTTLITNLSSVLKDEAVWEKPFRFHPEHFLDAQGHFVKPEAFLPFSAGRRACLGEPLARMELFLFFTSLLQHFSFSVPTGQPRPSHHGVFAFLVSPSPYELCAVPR
Protocol: Potassium phosphate buffer ([…] from Sangon Biotech. Dilute 20×PBS to 100 mM PBS buffer. The stock solutions of NADPH was 5 mM and the final concentration in the incubation system was 1 mM. The stock solution of MgCl2 were 7.5 mM and t the final concentration in the incubation system was 3 mM.
1.1 Preparation of probe substrate solution: The stock solutions of probe substrates of dextromethorphan (Sigma Cat No. D9684) was prepared by using DMSO and the final concentration in incubation system was 4 μM.
1.2 Preparation of selective inhibitors solution: The 30 mM stock solutions of inhibitor of CYP isoforms of Quinidine (Sigma, Q0750) was prepared by using DMSO and the final concentration in incubation system were 30, 10, 3, 1, 0.3, 0.03, 0.003 μM.
1.3 Preparation of test compound 5 and 6 solution: The 30 mM test compound 5 and 6 solutions were prepared by using DMSO and the final concentration in incubation system were 30, 10, 3, 1, 0.3, 0.03, 0.003 μM.
1.4 Human liver microsomes (HLM) were purchased by Corning Co, LTD. Diluted the HLM into 0.25 mg/ml and the final concentration was 0.1 mg/ml.
Added 20 μL working solutions of test compound 5 or 6 or selective inhibitors into a 96-well plate. Then added 40 μL of the HLM working solution and 20 μL of the substrate working solution. […] Samples are now ready for LC/MS/MS analysis.

[4] = human PBMCs stimulated by IL-1β (10 ng/ml), 24 h, read-out: IRAK4 PBMC AlphaLISA IL-1β (IC50)
[5] = human PBMCs stimulated by R848 (0.5 μM), 4 h, read-out: IRAK4 PBMC AlphaLISA R848 (IC50)

Row | SMILES | pIC50 [1] | IRAK4 Biochemical Assay Max Inhibition (%) [1] | pIC50 [2, 4] | pIC50 [2, 5] | pIC50 [3]
1 | CC[C@@H]1[C@H](F)C(=O)N[C@@H]1COc1ncc(C#CCN(C)C)c2cc(C(N)=O)c(OC)cc12 [Example 5, 4-(3-(dimethylamino)prop-1-yn-1-yl)-1-(((2S,3S,4S)-3-ethyl-4-fluoro-5-oxopyrrolidin-2-yl)methoxy)-7-methoxyisoquinoline-6-carboxamide] | 8.21 | 100.0% | 8.66 | 9.15 | < 4.52
2 | CC[C@@H]1[C@H](F)C(=O)N[C@@H]1COc1ncc(C#CCOC)c2cc(C(N)=O)c(OC)cc12 [Example 6, 1-(((2S,3S,4S)-3-ethyl-4-fluoro-5-oxopyrrolidin-2-yl)methoxy)-7-methoxy-4-(3-methoxyprop-1-yn-1-yl)isoquinoline-6-carboxamide] | 7.84 | 100.0% | 8.89 | 9.00 | 4.86
